This experiment deals with TNBC tumor tissue. Nature of the experiment: Single-cell RNA sequencing of tumors. Type of experiment: in vivo, mouse. The settings on record: scRNA-Seq, payload effect. As for the experimental part: The flash-frozen tissue samples (25 mg) were collected and stored at −80° C. until processing. Chromium Next GEM RNA Profiling Sample Fixation Kit (PN-1000414, 10× Genomics, Pleasanton, CA, USA) was used to fix tissue by mixing 1 mL of fixation buffer with 25 mg of tissue, followed by fine mince and incubation at 4° C. for 16-24 hours without agitation. After fixation, tissue samples were centrifuged, washed with chilled PBS, and resuspended in 1 mL of tissue resuspension buffer. The fixed tissues supplemented with pre-warmed dissociation buffer were dissociated using an Octo Dissociator according to the manufacturer's instructions. […] Cell concentration was determined using an automated cell counter with fluorescent nucleic acid staining. […]
A 10× single-cell library was prepared using the Chromium Fixed RNA Kit (Cat #1000497, 10× Genomics). […] The quality control of cDNA was evaluated using an Agilent Bioanalyzer aiming for the final library molecules with P5 and P7 priming sites used in Illumina sequencers. For each cDNA sample, single-cell library construction was started using the 10× barcoded ligated probe products, and sequenced using the NovaSeq 6000 flow cell 100-cycle kit (Illumina, San Diego, CA, USA) in a Read1:i7:i5:Read2 format of 28:10:10:90 bp at 10× Genomics. […]

Where a SMILES comes first, the peptide text is derived from it. [ ]: non-standard residue; d: D form. Dolaproine = CO[C@@H]([C@@H]1CCCN1)[C@@H](C)C(=O)O; Dil = CC[C@H](C)[C@H](NC)[C@@H](CC(=O)O)OC; NMeV = CN[C@H](C(=O)O)C(C)C

In the case of `CC[C@H](C)[C@@H]([C@@H](CC(=O)N1CCC[C@H]1[C@H](OC)[C@@H](C)C(=O)N[C@@H](Cc1ccccc1)C(=O)O)OC)N(C)C(=O)[C@@H](NC(=O)[C@@H](NC)C(C)C)C(C)C` [MMAF, Monomethylauristatin F] (H-[NMeV]V[Dil][Dolaproine]F-OH), the “tumor cell distribution in mitotic stages” value is “inhibition of cell proliferation”.

These data come from patent publication US20260345802A1, “ANTIBODY-DRUG CONJUGATES AND LINKERS AND METHODS OF USE THEREOF” (priority 2023, published 2026).
